Measurements: the NIST ThermoML archive (doi:10.1021/je060271a)
Values joined by “and” are separate entries in the source; they are usually repeats but may differ in a detail not shown here. Identical values can stand only once.

Conditions: 283.15 K, Liquid, Vibrating tube method

CCCCCC(=O)OCC(COC(=O)CCCCC)(COC(=O)CCCCC)COC(=O)CCCCC [pentaerythritol tetrahexanoate]
Conditions | mass density
10919 kPa | 1010.4 kg/m3
10934 kPa | 1010.4 kg/m3
10949 kPa | 1010.4 kg/m3
10966 kPa | 1010.5 kg/m3
10983 kPa | 1010.4 kg/m3
10998 kPa | 1010.5 kg/m3
11013 kPa | 1010.5 kg/m3
11028 kPa | 1010.6 kg/m3
11046 kPa | 1010.5 kg/m3
11060 kPa | 1010.6 kg/m3
11075 kPa | 1010.4 kg/m3
11093 kPa | 1010.5 kg/m3
11108 kPa | 1010.6 kg/m3
11126 kPa | 1010.6 kg/m3
11141 kPa | 1010.5 kg/m3
11157 kPa | 1010.6 kg/m3
11173 kPa | 1010.6 kg/m3
11191 kPa | 1010.5 kg/m3
11206 kPa | 1010.6 kg/m3
11221 kPa | 1010.5 kg/m3
11237 kPa | 1010.6 kg/m3
11256 kPa | 1010.5 kg/m3
11271 kPa | 1010.6 kg/m3
11289 kPa | 1010.8 kg/m3
11304 kPa | 1010.6 kg/m3
11320 kPa | 1010.7 kg/m3
11339 kPa | 1010.7 kg/m3
11355 kPa | 1010.7 kg/m3
11370 kPa | 1010.6 kg/m3
11387 kPa | 1010.7 kg/m3
11406 kPa | 1010.7 kg/m3
11422 kPa | 1010.7 kg/m3
11438 kPa | 1010.7 kg/m3
11457 kPa | 1010.8 kg/m3
11473 kPa | 1010.8 kg/m3
11492 kPa | 1010.7 kg/m3
11508 kPa | 1010.8 kg/m3
11524 kPa | 1010.8 kg/m3
11541 kPa | 1010.7 kg/m3
11560 kPa | 1010.8 kg/m3
11577 kPa | 1010.7 kg/m3
11593 kPa | 1010.8 kg/m3
11613 kPa | 1010.9 kg/m3
11630 kPa | 1010.7 kg/m3
11649 kPa | 1010.9 kg/m3
11682 kPa | 1010.8 kg/m3
11753 kPa | 1010.9 kg/m3
11773 kPa | 1011 kg/m3
11790 kPa | 1010.9 kg/m3
11807 kPa | 1010.8 kg/m3
11828 kPa | 1011 kg/m3
11844 kPa | 1010.9 kg/m3
11862 kPa | 1010.9 kg/m3
11899 kPa | 1011 kg/m3
11916 kPa | 1011 kg/m3
11936 kPa | 1011.1 kg/m3
11954 kPa | 1010.9 kg/m3
11971 kPa | 1011 kg/m3
11988 kPa | 1011.1 kg/m3
12009 kPa | 1011 kg/m3
12027 kPa | 1011 kg/m3
12044 kPa | 1011 kg/m3
12062 kPa | 1011.2 kg/m3
12082 kPa | 1011.1 kg/m3
12099 kPa | 1011.2 kg/m3
12119 kPa | 1011.2 kg/m3
12137 kPa | 1011.1 kg/m3
12154 kPa | 1011.1 kg/m3
12171 kPa | 1011 kg/m3
12192 kPa | 1011.2 kg/m3
12209 kPa | 1011.1 kg/m3
12231 kPa | 1011.3 kg/m3
12249 kPa | 1011.2 kg/m3
12267 kPa | 1011.2 kg/m3
12290 kPa | 1011.1 kg/m3
12309 kPa | 1011.2 kg/m3
12310 kPa | 1011.2 kg/m3
12311 kPa | 1011.2 kg/m3
12312 kPa | 1011.2 kg/m3 and 1011.4 kg/m3
12313 kPa | 1011.1 kg/m3
12314 kPa | 1011.2 kg/m3 and 1011.3 kg/m3
12315 kPa | 1011.3 kg/m3
12316 kPa | 1011.2 kg/m3
12317 kPa | 1011.2 kg/m3
12318 kPa | 1011.3 kg/m3 and 1011.2 kg/m3
12319 kPa | 1011.4 kg/m3 and 1011.1 kg/m3
12320 kPa | 1011.3 kg/m3 and 1011.2 kg/m3
12321 kPa | 1011.2 kg/m3
12322 kPa | 1011.3 kg/m3 and 1011.2 kg/m3
12323 kPa | 1011.3 kg/m3 and 1011.2 kg/m3
12324 kPa | 1011.3 kg/m3
12325 kPa | 1011.2 kg/m3 and 1011.3 kg/m3
12326 kPa | 1011.2 kg/m3 and 1011 kg/m3
12327 kPa | 1011.3 kg/m3
12328 kPa | 1011.2 kg/m3
12332 kPa | 1011.3 kg/m3
12334 kPa | 1011.3 kg/m3
12336 kPa | 1011.3 kg/m3
12339 kPa | 1011.4 kg/m3
12343 kPa | 1011.3 kg/m3 and 1011.2 kg/m3
12348 kPa | 1011.2 kg/m3
12351 kPa | 1011.1 kg/m3
12354 kPa | 1011.4 kg/m3
12356 kPa | 1011.2 kg/m3
12359 kPa | 1011.2 kg/m3
12362 kPa | 1011.3 kg/m3
12363 kPa | 1011.2 kg/m3
12364 kPa | 1011.3 kg/m3
12366 kPa | 1011.3 kg/m3
12380 kPa | 1011.2 kg/m3
12399 kPa | 1011.3 kg/m3
12414 kPa | 1011.3 kg/m3
12431 kPa | 1011.3 kg/m3
12446 kPa | 1011.2 kg/m3
12461 kPa | 1011.2 kg/m3
12476 kPa | 1011.4 kg/m3
12494 kPa | 1011.4 kg/m3
12509 kPa | 1011.3 kg/m3
12527 kPa | 1011.3 kg/m3
12543 kPa | 1011.3 kg/m3
12558 kPa | 1011.3 kg/m3
12577 kPa | 1011.3 kg/m3
12592 kPa | 1011.4 kg/m3
12607 kPa | 1011.5 kg/m3
12622 kPa | 1011.2 kg/m3
12640 kPa | 1011.4 kg/m3
12656 kPa | 1011.5 kg/m3
12674 kPa | 1011.4 kg/m3
12689 kPa | 1011.3 kg/m3
12705 kPa | 1011.5 kg/m3
12723 kPa | 1011.3 kg/m3
12738 kPa | 1011.5 kg/m3
12754 kPa | 1011.5 kg/m3
12768 kPa | 1011.5 kg/m3
12786 kPa | 1011.4 kg/m3
12800 kPa | 1011.5 kg/m3
12814 kPa | 1011.5 kg/m3
12831 kPa | 1011.5 kg/m3
12845 kPa | 1011.5 kg/m3
12862 kPa | 1011.5 kg/m3
12875 kPa | 1011.5 kg/m3
12889 kPa | 1011.5 kg/m3
12903 kPa | 1011.5 kg/m3
12919 kPa | 1011.4 kg/m3
12933 kPa | 1011.6 kg/m3
